Patent US20240325394A1, “SALT AND CRYSTAL FORM OF NITROGEN-CONTAINING HETEROCYCLIC DERIVATIVE, PREPARATION METHOD THEREFOR AND APPLICATION THEREOF” (SHANGHAI HANSOH BIOMEDICAL CO., LTD., priority 2020, published 2024)

Key:
CYP450 2C19 = biological target: T1, CYP450 2C19 (Homo sapiens, UniProt P33261); experiment: CYP enzyme single point inhibition test, human liver microsomes, 2C19; assay type: in vitro ADME; details: single point method
T1 construct: from tissue; host or cells: human liver microsomes
Procedure: (§1) Using human liver microsomal incubation system, the inhibition of CYP450 enzyme subtypes by compounds was rapidly predicted by single point method.
(§2) 2.5 mM NADPH: 100 mM phosphate buffer was added to 4.165 mg of NADPH (reduced nicotinamide adenine dinucleotide phosphate) to 2 mL. 0.25 mg/mL microsome: 4 mL of 100 mM phosphate buffer was added to 50 μL of 20 mg/mL microsome and mixed well.
(§3) The embodiment compound to be tested was weighed and diluted to 10 mM with DMSO and then diluted to 100 µM with 100 mM phosphate buffer.
(§4) • 1. In a 96-well plate, 40 μL of liver microsomes, 10 μL of substrate, 10 μL of compound to be tested were pre-incubated for 3 min. • 2. 40 μL of NADPH was added. • 3. 300 μL of acetonitrile termination solution containing internal standard was added at 20 min. • 4. Centrifugal injection.

[1] = Plasma stability, dog plasma; assay type: in vitro ADME; details: dog plasma, 37° C.
Method in brief: (§5)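 Compound from a 10 μM working solution in 100 mM phosphate buffer was incubated at 37°C in anticoagulated plasma from each species, with propantheline as positive control. Aliquots taken at 0, 15, 30, 60, 90 and 120 min were quenched in acetonitrile with internal standard. Remaining compound was quantified by LC-MS/MS (positive ESI, MRM).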

hERG potassium channel = biological target: T2, hERG potassium channel (Homo sapiens, UniProt Q12809); experiment: hERG potassium channel inhibitory activity test (Qpatch, CHO-hERG cells); assay type: cell-based; details: highest test concentration 40 μM, read-out: hERG (μM), inhibition at multiple concentrations on hERG current
T2 construct: expressed in transfected cells; host or cells: CHO-hERG cells
Procedure: 7.1.1 CHO-hERG cells were cultured in a 175 cm^2 flask, when the cell density reached 60-80%, the culture medium was removed, the cells were washed with 7 mL PBS, and then digested with 3 mL Detachin. 7.1.2 After complete digestion, 7 mL culture medium was added to neutralize, then the mixture was centrifuged, the supernatant was aspirated, and then 5 mL culture medium was added to re-suspend, ensuring 2-5×10^6/mL of cell density.
The process of single cell high impedance sealing and whole cell mode formation were all automatically completed by Qpatch instrument, after obtaining the whole cell recording mode, the cells were clamped at −80 mV, before giving a 5-second +40 mV depolarization stimulus, a 50 millisecond −50 mV prevoltage was given first, and then repolarized to −50 mV for 5 seconds, then returned to −80 mV. This voltage stimulation was applied every 15 seconds and recorded for 2 minutes before giving extracellular fluid recordings for 5 minutes, and then the administration process was started, the compound concentration was given from the lowest test concentration, each test concentration was given for 2.5 minutes, and the positive control compound 3 μM of Cisapride was given after all concentrations were continuously given. At least 3 cells (n≥3) were tested at each concentration.
7.4.1 20 mM of compound mother liquor was diluted with extracellular fluid, 5 μL of 20 mM compound mother liquor was added into 2495 μL of extracellular fluid and diluted 500-fold to 40 μM, and then the final concentration to be tested was obtained by sequential 3-fold serial dilutions in extracellular solution containing 0.2% DMSO. 7.4.2 The highest test concentration was 40 μM, in a total of 6 concentrations of 40, 13.33, 4.44, 1.48, 0.49 and 0.16 μM respectively. 7.4.3 The content of DMSO in the final test concentration was not more than 0.2%, and this concentration of DMSO had no effect on hERG potassium channel.
The experimental data were analyzed by XLFit software. […]

[2] = Plasma stability, human plasma; assay type: in vitro ADME
Method in brief: as §5

CYP450 1A2 = biological target: T3, CYP450 1A2 (Homo sapiens, UniProt P05177); experiment: CYP enzyme single point inhibition test, human liver microsomes, 1A2; assay type: in vitro ADME; details: single point method
T3 construct: from tissue; host or cells: human liver microsomes
T3 sequence (P05177 1-516): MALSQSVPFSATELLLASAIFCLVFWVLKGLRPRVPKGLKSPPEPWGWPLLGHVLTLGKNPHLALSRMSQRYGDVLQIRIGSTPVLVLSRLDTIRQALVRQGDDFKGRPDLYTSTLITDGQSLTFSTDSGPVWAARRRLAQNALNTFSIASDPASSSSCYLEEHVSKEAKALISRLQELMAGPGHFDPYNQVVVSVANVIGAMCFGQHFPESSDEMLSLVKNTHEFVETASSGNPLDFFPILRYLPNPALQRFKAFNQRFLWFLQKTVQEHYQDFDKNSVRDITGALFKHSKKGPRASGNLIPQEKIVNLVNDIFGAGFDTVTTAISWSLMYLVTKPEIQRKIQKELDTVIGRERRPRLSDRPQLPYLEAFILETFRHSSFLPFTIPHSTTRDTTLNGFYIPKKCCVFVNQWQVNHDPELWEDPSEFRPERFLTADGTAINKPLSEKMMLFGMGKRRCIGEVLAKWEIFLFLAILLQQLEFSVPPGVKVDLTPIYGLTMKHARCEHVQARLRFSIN
Procedure: as §1, §2, §3, §4

T1 sequence (P33261 whole entry): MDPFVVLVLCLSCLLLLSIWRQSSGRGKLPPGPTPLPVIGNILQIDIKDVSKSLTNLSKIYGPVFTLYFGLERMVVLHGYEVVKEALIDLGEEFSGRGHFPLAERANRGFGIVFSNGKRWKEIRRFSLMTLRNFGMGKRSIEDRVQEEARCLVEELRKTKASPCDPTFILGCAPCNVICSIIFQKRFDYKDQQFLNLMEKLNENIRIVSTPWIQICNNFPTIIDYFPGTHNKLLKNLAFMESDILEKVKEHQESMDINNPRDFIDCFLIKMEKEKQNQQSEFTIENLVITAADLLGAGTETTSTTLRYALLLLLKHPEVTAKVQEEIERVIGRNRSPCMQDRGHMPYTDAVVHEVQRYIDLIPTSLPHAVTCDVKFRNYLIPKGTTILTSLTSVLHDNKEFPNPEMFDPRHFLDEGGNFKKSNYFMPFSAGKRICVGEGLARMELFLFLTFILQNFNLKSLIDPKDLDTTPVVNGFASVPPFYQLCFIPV
T2 sequence (Q12809 whole entry): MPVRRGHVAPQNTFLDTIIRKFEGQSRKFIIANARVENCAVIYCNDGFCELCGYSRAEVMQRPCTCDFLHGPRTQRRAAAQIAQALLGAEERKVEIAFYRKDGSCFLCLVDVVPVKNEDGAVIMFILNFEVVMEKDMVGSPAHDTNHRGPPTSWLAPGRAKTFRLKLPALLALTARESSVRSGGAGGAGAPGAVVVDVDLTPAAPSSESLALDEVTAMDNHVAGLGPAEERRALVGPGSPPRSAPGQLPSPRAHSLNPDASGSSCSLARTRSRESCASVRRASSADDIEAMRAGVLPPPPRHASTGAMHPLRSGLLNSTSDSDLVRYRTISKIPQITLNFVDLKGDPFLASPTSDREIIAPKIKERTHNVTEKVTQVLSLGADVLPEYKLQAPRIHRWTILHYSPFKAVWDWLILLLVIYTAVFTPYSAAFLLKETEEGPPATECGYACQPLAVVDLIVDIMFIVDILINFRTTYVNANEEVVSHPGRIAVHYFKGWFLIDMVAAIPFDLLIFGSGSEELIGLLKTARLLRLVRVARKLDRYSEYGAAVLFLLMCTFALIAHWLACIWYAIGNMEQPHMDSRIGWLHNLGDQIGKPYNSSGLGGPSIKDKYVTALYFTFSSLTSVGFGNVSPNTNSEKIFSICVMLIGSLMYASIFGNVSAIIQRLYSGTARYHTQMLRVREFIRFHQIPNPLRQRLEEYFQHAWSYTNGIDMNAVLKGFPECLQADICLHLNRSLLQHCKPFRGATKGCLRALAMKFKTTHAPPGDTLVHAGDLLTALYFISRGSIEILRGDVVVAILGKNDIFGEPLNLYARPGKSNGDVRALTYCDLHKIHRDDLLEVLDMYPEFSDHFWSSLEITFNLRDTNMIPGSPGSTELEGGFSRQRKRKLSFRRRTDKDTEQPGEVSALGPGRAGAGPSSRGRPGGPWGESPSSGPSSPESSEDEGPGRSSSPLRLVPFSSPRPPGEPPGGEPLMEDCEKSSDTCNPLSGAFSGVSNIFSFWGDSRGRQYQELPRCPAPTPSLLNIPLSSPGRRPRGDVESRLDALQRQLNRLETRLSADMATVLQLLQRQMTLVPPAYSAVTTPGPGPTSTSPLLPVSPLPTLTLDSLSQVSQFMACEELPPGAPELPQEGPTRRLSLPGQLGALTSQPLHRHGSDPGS

Compound	IC50 (CYP450 2C19) [µM]	Residual rate (%) 0 min [1] [%]	Residual rate (%) 15 min [1] [%]	Residual rate (%) 30 min [1] [%]	Residual rate (%) 60 min [1] [%]	Residual rate (%) 120 min [1] [%]	IC50 (hERG potassium channel) [µM]	Residual rate (%) 0 min ([2]; human, 0.5 μM) [%]	Residual rate (%) 15 min ([2]; human, 0.5 μM) [%]	Residual rate (%) 30 min ([2]; human, 0.5 μM) [%]	Residual rate (%) 60 min ([2]; human, 0.5 μM) [%]	Residual rate (%) 120 min ([2]; human, 0.5 μM) [%]	IC50 (CYP450 1A2) [µM]	Residual rate (%) 0 min ([2]; human plasma, 37° C.) [%]	Residual rate (%) 15 min ([2]; human plasma, 37° C.) [%]	Residual rate (%) 30 min ([2]; human plasma, 37° C.) [%]	Residual rate (%) 60 min ([2]; human plasma, 37° C.) [%]	Residual rate (%) 120 min ([2]; human plasma, 37° C.) [%]
C=CC(=O)N1C[C@H](C)N(c2nc(=O)n(-c3c(SC)ccnc3C(C)C)c3nc(-c4c(N)ccc(Cl)c4F)c(Cl)cc23)C[C@H]1C (atropisomer, axis not shown) [Embodiment 13-1, P-4-((2S,5R)-4-Acryloyl-2,5-dimethylpiperazin-1-yl)-7-(6-amino-3-chloro-2-fluorophenyl)-6-chloro-1-(2-isopropyl-4-(methylthio)pyridin-3-yl)pyrido[2,3-d]pyrimidin-2(1H)-one]	28.8	100.00	97.71	96.32	94.86	92.49	> 30	100.00	102.34	100.28	90.27	87.22	66.7					
P-4-((2S,5R)-4-acryloyl-2,5-dimethylpiperazin-1-yl)-6-fluoro-7-(2-fluoro-6-hydroxyphenyl)-1-(2-isopropyl-4-(methylthio)pyridin-3-yl)pyrido[2,3-d]pyrimidin-2(1H)-one [Embodiment 2-1]	> 100	100.00	97.87	96.23	92.42	85.48	> 30						> 100	100.00	97.39	98.79	94.50	87.91
